In patent US9328106B2, “Cyclic ether pyrazol-4-yl-heterocyclyl-carboxamide compounds and methods of use” (Genentech, Inc., priority 2012, dated 2016):

These molecules were tested against PIM1 (Homo sapiens (Human), UniProt P11309) (assay: biochemical). Details: 20 pM PIM1, 1 μM FAM-peptide, 10 μM ATP, 90 minutes at room temperature; read-out: PIM1 LC3K (KI).
Type: biochemical

Chain of PIM1 (P11309 whole entry): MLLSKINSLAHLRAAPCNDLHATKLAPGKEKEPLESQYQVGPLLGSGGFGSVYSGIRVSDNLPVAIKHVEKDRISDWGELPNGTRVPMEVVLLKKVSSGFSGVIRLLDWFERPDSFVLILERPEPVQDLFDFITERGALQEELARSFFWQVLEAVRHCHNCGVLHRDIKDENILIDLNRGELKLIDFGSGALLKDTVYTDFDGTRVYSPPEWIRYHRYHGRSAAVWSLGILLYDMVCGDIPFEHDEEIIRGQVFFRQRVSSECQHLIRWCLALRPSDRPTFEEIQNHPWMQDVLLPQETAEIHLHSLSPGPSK

Ki [nM]	Compound
0.124	Cn1ncc(NC(=O)c2csc(-c3cnn(CC(C)(C)O)c3)n2)c1[C@@H]1CC[C@@H](N)[C@H](F)CO1 [Example 228, N-(5-((2S,5R,6S)-5-amino-6-fluorooxepan-2-yl)-1-methyl-1H-pyrazol-4-yl)-2-(1-(2-hydroxy-2-methylpropyl)-1H-pyrazol-4-yl)thiazole-4-carboxamide]
0.001	COc1ccc(F)c(-c2nc(C(=O)Nc3cnn(C)c3[C@@H]3CC[C@@H](N)[C@H](F)CO3)cs2)c1F [Example 229, N-(5-((2S,5R,6S)-5-amino-6-fluorooxepan-2-yl)-1-methyl-1H-pyrazol-4-yl)-2-(2,6-difluoro-3-methoxyphenyl)thiazole-4-carboxamide]
0.031	Cn1ncc(NC(=O)c2csc(-c3c(F)ccc(F)c3F)n2)c1[C@@H]1CC[C@@H](N)[C@@H](F)CO1 [Example 230, N-(5-((2S,5R,6R)-5-amino-6-fluorooxepan-2-yl)-1-methyl-1H-pyrazol-4-yl)-2-(2,3,6-trifluorophenyl)thiazole-4-carboxamide]
0.045	Cc1cccnc1-c1nc(C(=O)Nc2cnn(C)c2[C@@H]2CC[C@@H](N)[C@H](F)CO2)cs1 [Example 231, N-(5-((2S,5R,6S)-5-amino-6-fluorooxepan-2-yl)-1-methyl-1H-pyrazol-4-yl)-2-(3-methylpyridin-2-yl)thiazole-4-carboxamide]
1.11	COc1ncccc1-c1nc(C(=O)Nc2cnn(C)c2[C@@H]2CC[C@@H](N)[C@H](F)CO2)cs1 [Example 232, N-(5-((2S,5R,6S)-5-amino-6-fluorooxepan-2-yl)-1-methyl-1H-pyrazol-4-yl)-2-(2-methoxypyridin-3-yl)thiazole-4-carboxamide]
0.103	Cn1ncc(NC(=O)c2csc(-c3ccc[nH]c3=O)n2)c1[C@@H]1CC[C@@H](N)[C@H](F)CO1 [Example 233, N-(5-((2S,5R,6S)-5-amino-6-fluorooxepan-2-yl)-1-methyl-1H-pyrazol-4-yl)-2-(2-oxo-1,2-dihydropyridin-3-yl)thiazole-4-carboxamide]
0.068	Cc1noc(C)c1-c1nc(C(=O)Nc2cnn(C)c2[C@@H]2CC[C@@H](N)[C@H](F)CO2)cs1 [Example 234, N-(5-((2S,5R,6S)-5-amino-6-fluorooxepan-2-yl)-1-methyl-1H-pyrazol-4-yl)-2-(3,5-dimethylisoxazol-4-yl)thiazole-4-carboxamide]
0.068	Cn1ncc(NC(=O)c2csc(-c3cnn(C4CC4)c3)n2)c1[C@@H]1CC[C@@H](N)[C@H](F)CO1 [Example 235, N-(5-((2S,5R,6S)-5-amino-6-fluorooxepan-2-yl)-1-methyl-1H-pyrazol-4-yl)-2-(1-cyclopropyl-1H-pyrazol-4-yl)thiazole-4-carboxamide]
0.255	Cn1ncc(NC(=O)c2csc(-c3cc(F)cc(F)c3F)n2)c1[C@@H]1CC[C@@H](N)[C@H](F)CO1 [Example 236, N-(5-((2S,5R,6S)-5-amino-6-fluorooxepan-2-yl)-1-methyl-1H-pyrazol-4-yl)-2-(2,3,5-trifluorophenyl)thiazole-4-carboxamide]
0.107	Cn1ncc(NC(=O)c2csc(-c3ncccc3F)n2)c1[C@@H]1CC[C@@H](N)[C@H](F)CO1 [Example 237, N-(5-((2S,5R,6S)-5-amino-6-fluorooxepan-2-yl)-1-methyl-1H-pyrazol-4-yl)-2-(3-fluoropyridin-2-yl)thiazole-4-carboxamide]
0.048	Cc1ccc(F)c(-c2nc(C(=O)Nc3cnn(C)c3[C@@H]3CC[C@@H](N)[C@H](F)CO3)cs2)c1 [Example 238, N-(5-((2S,5R,6S)-5-amino-6-fluorooxepan-2-yl)-1-methyl-1H-pyrazol-4-yl)-2-(2-fluoro-5-methylphenyl)thiazole-4-carboxamide]
2.66	Cn1ncc(NC(=O)c2csc(-c3cncc(F)c3)n2)c1[C@@H]1CC[C@@H](N)[C@H](F)CO1 [Example 239, N-(5-((2S,5R,6S)-5-amino-6-fluorooxepan-2-yl)-1-methyl-1H-pyrazol-4-yl)-2-(5-fluoropyridin-3-yl)thiazole-4-carboxamide]
0.34	Cn1ncc(NC(=O)c2csc(-c3ccncc3F)n2)c1[C@@H]1CC[C@@H](N)[C@H](F)CO1 [Example 240, N-(5-((2S,5R,6S)-5-amino-6-fluorooxepan-2-yl)-1-methyl-1H-pyrazol-4-yl)-2-(3-fluoropyridin-4-yl)thiazole-4-carboxamide]
0.283	Cc1nn(C)cc1-c1nc(C(=O)Nc2cnn(C)c2[C@@H]2CC[C@@H](N)[C@H](F)CO2)cs1 [Example 241, N-(5-((2S,5R,6S)-5-amino-6-fluorooxepan-2-yl)-1-methyl-1H-pyrazol-4-yl)-2-(1,3-dimethyl-1H-pyrazol-4-yl)thiazole-4-carboxamide]
0.218	Cc1c(-c2nc(C(=O)Nc3cnn(C)c3[C@@H]3CC[C@@H](N)[C@H](F)CO3)cs2)cnn1C [Example 242, N-(5-((2S,5R,6S)-5-amino-6-fluorooxepan-2-yl)-1-methyl-1H-pyrazol-4-yl)-2-(1,5-dimethyl-1H-pyrazol-4-yl)thiazole-4-carboxamide]
0.047	Cn1ncc(NC(=O)c2csc(-c3c(F)ccc(F)c3F)n2)c1[C@@H]1CC[C@@H](N)[C@H](F)CO1 [Example 243, N-(5-((2S,5R,6S)-5-amino-6-fluorooxepan-2-yl)-1-methyl-1H-pyrazol-4-yl)-2-(2,3,6-trifluorophenyl)thiazole-4-carboxamide]
5.98	Cc1noc(C)c1-c1nc(C(=O)Nc2cnn(C)c2[C@@H]2CC[C@@H](N)[C@@H](F)CO2)cs1 [Example 244, N-(5-((2S,5R,6R)-5-amino-6-fluorooxepan-2-yl)-1-methyl-1H-pyrazol-4-yl)-2-(3,5-dimethylisoxazol-4-yl)thiazole-4-carboxamide]
0.104	Cn1ncc(NC(=O)c2csc(-c3cccc(F)c3F)n2)c1[C@@H]1CC[C@@H](N)[C@@H](F)CO1 [Example 245, N-(5-((2S,5R,6R)-5-amino-6-fluorooxepan-2-yl)-1-methyl-1H-pyrazol-4-yl)-2-(2,3-difluorophenyl)thiazole-4-carboxamide]
5.76	Cn1ncc(NC(=O)c2csc(-c3cncc(F)c3)n2)c1[C@@H]1CC[C@@H](N)[C@@H](F)CO1 [Example 246, N-(5-((2S,5R,6R)-5-amino-6-fluorooxepan-2-yl)-1-methyl-1H-pyrazol-4-yl)-2-(5-fluoropyridin-3-yl)thiazole-4-carboxamide]
0.112	Cn1ncc(NC(=O)c2csc(-c3c(F)cncc3F)n2)c1[C@@H]1CC[C@@H](N)[C@@H](F)CO1 [Example 247, N-(5-((2S,5R,6R)-5-amino-6-fluorooxepan-2-yl)-1-methyl-1H-pyrazol-4-yl)-2-(3,5-difluoropyridin-4-yl)thiazole-4-carboxamide]
0.064	Cn1ncc(NC(=O)c2csc(-c3cccc(Cl)c3F)n2)c1[C@@H]1CC[C@@H](N)[C@@H](F)CO1 [Example 248, N-(5-((2S,5R,6R)-5-amino-6-fluorooxepan-2-yl)-1-methyl-1H-pyrazol-4-yl)-2-(3-chloro-2-fluorophenyl)thiazole-4-carboxamide]
0.533	Cn1ncc(NC(=O)c2csc(-c3cccc(-c4cccc(Cl)c4F)c3F)n2)c1[C@@H]1CC[C@@H](N)[C@@H](F)CO1 [Example 249, N-(5-((2S,5R,6R)-5-amino-6-fluorooxepan-2-yl)-1-methyl-1H-pyrazol-4-yl)-2-(3′-chloro-2,2′-difluoro-[1,1′-biphenyl]-3-yl)thiazole-4-carboxamide]
0.132	Cn1ncc(NC(=O)c2csc(-c3cccc(F)c3Cl)n2)c1[C@@H]1CC[C@@H](N)[C@@H](F)CO1 [Example 250, N-(5-((2S,5R,6R)-5-amino-6-fluorooxepan-2-yl)-1-methyl-1H-pyrazol-4-yl)-2-(2-chloro-3-fluorophenyl)thiazole-4-carboxamide]
630	Cn1ncc(NC(=O)c2csc(-c3cccc(F)c3-c3cccc(F)c3Cl)n2)c1[C@@H]1CC[C@@H](N)[C@@H](F)CO1 [Example 251, N-(5-((2S,5R,6R)-5-amino-6-fluorooxepan-2-yl)-1-methyl-1H-pyrazol-4-yl)-2-(2′-chloro-3′,6-difluoro-[1,1′-biphenyl]-2-yl)thiazole-4-carboxamide]
0.281	Cn1cc(-c2nc(C(=O)Nc3cnn(C)c3[C@@H]3CC[C@@H](N)[C@@H](F)CO3)cs2)c(C(F)(F)F)n1 [Example 252, N-(5-((2S,5R,6R)-5-amino-6-fluorooxepan-2-yl)-1-methyl-1H-pyrazol-4-yl)-2-(1-methyl-3-(trifluoromethyl)-1H-pyrazol-4-yl)thiazole-4-carboxamide]
0.253	Cn1cc(-c2nc(C(=O)Nc3cnn(C)c3[C@@H]3CC[C@@H](N)[C@@H](F)CO3)cs2)c(C2CC2)n1 [Example 253, N-(5-((2S,5R,6R)-5-amino-6-fluorooxepan-2-yl)-1-methyl-1H-pyrazol-4-yl)-2-(3-cyclopropyl-1-methyl-1H-pyrazol-4-yl)thiazole-4-carboxamide]
0.026	Cc1nn(C)cc1-c1nc(C(=O)Nc2cnn(C)c2[C@@H]2CC[C@@H](N)[C@@H](F)CO2)c(N)s1 [Example 254, 5-amino-N-(5-((2S,5R,6R)-5-amino-6-fluorooxepan-2-yl)-1-methyl-1H-pyrazol-4-yl)-2-(1,3-dimethyl-1H-pyrazol-4-yl)thiazole-4-carboxamide]
0.007	Cc1c(-c2nc(C(=O)Nc3cnn(C)c3[C@@H]3CC[C@@H](N)[C@@H](F)CO3)c(N)s2)cnn1C [Example 255, 5-amino-N-(5-((2S,5R,6R)-5-amino-6-fluorooxepan-2-yl)-1-methyl-1H-pyrazol-4-yl)-2-(1,5-dimethyl-1H-pyrazol-4-yl)thiazole-4-carboxamide]

Compound	Ki [nM]
CC(C)n1cc(-c2nc(C(=O)Nc3cnn(C)c3[C@@H]3CC[C@@H](N)[C@@H](F)CO3)c(N)s2)cn1 [Example 256, 5-amino-N-(5-((2S,5R,6R)-5-amino-6-fluorooxepan-2-yl)-1-methyl-1H-pyrazol-4-yl)-2-(1-isopropyl-1H-pyrazol-4-yl)thiazole-4-carboxamide]	0.093
